Organism: Rattus norvegicus
Format: toxicity, organism-based, Sprague-Dawley
Details: in vivo, po, 24 h, route oral GAVAGE, time 1 day, vehicle .5 % CMC; for ABSOLUTE EOSINOPHIL / ABSOLUTE LYMPHOCYTE / ABSOLUTE MONOCYTE / ABSOLUTE SEGMENTED NEUTROPHIL / BASOPHIL / EOSINOPHIL / ERYTHROCYTE COUNT / HEMATOCRIT / HEMOGLOBIN / LEUKOCYTE COUNT / LYMPHOCYTE / MEAN CORPUSCULAR HEMOGLOBIN / MEAN CORPUSCULAR HEMOGLOBIN CONCENTRATION / MEAN CORPUSCULAR VOLUME / MONOCYTE / NEUTROPHIL / NUCLEATED RED BLOOD CELLS / PLATELET COUNT: tissue Blood; for ALANINE AMINOTRANSFERASE / ALBUMIN / ALKALINE PHOSPHATASE / ASPARTATE AMINOTRANSFERASE / BLOOD UREA NITROGEN / CARBON DIOXIDE / CHLORIDE / CHOLESTEROL / CREATININE / GLUCOSE / LACTATE DEHYDROGENASE / LIPASE / PHOSPHORUS / POTASSIUM / SODIUM / TOTAL BILIRUBIN / TOTAL PROTEIN / URIC ACID: tissue Plasma
[1] = 0 mg/kg, vehicle control, dose level Control

Description: DrugMatrix - Regimen: Single

ClC(Cl)Br [BROMODICHLOROMETHANE]
ABSOLUTE EOSINOPHIL [1]: 150 CELLS/uL
ABSOLUTE LYMPHOCYTE [1]: 13279.83 CELLS/uL
ABSOLUTE MONOCYTE [1]: 654.5 CELLS/uL
ABSOLUTE SEGMENTED NEUTROPHIL [1]: 1565.67 CELLS/uL
BASOPHIL [1]: 0%
EOSINOPHIL [1]: 1%
ERYTHROCYTE COUNT [1]: 5.36 x10E6/uL
HEMATOCRIT [1]: 33.37%
HEMOGLOBIN [1]: 12.52 G/DL
LEUKOCYTE COUNT [1]: 15.65 x10E3/uL
LYMPHOCYTE [1]: 84.83%
MEAN CORPUSCULAR HEMOGLOBIN [1]: 23.4 pg
MEAN CORPUSCULAR HEMOGLOBIN CONCENTRATION [1]: 37.52 G/DL
MEAN CORPUSCULAR VOLUME [1]: 62.32 fL
MONOCYTE [1]: 4.17%
NEUTROPHIL [1]: 10%
NUCLEATED RED BLOOD CELLS [1]: 0 /100WBC
PLATELET COUNT [1]: 1020 x10E3/uL
ALANINE AMINOTRANSFERASE [1]: 49 u/L
ALBUMIN [1]: 4.47 G/DL
ALKALINE PHOSPHATASE [1]: 361.17 u/L
ASPARTATE AMINOTRANSFERASE [1]: 78.67 u/L
BLOOD UREA NITROGEN [1]: 13.17 mg/dL
CARBON DIOXIDE [1]: 29.67 mmol/L
CHLORIDE [1]: 100.83 MEQ/L
CHOLESTEROL [1]: 82.17 mg/dL
CREATININE [1]: 0.15 mg/dL
GLUCOSE [1]: 150.83 mg/dL
LACTATE DEHYDROGENASE [1]: 239.17 u/L
LIPASE [1]: 7.83 u/L
PHOSPHORUS [1]: 13.82 mg/dL
POTASSIUM [1]: 6.62 MEQ/L
SODIUM [1]: 144.25 MEQ/L
TOTAL BILIRUBIN [1]: 0.15 mg/dL
TOTAL PROTEIN [1]: 6.2 G/DL
URIC ACID [1]: 1.57 mg/dL
ABSOLUTE EOSINOPHIL (430 mg/kg, dose level High): 41.33 CELLS/uL
ABSOLUTE LYMPHOCYTE (430 mg/kg, dose level High): 10502.67 CELLS/uL
ABSOLUTE MONOCYTE (430 mg/kg, dose level High): 677 CELLS/uL
ABSOLUTE SEGMENTED NEUTROPHIL (430 mg/kg, dose level High): 1645.67 CELLS/uL
BASOPHIL (430 mg/kg, dose level High): 0%
EOSINOPHIL (430 mg/kg, dose level High): 0.33%
ERYTHROCYTE COUNT (430 mg/kg, dose level High): 6.1 x10E6/uL
HEMATOCRIT (430 mg/kg, dose level High): 36.03%
HEMOGLOBIN (430 mg/kg, dose level High): 13.4 G/DL
LEUKOCYTE COUNT (430 mg/kg, dose level High): 12.87 x10E3/uL
LYMPHOCYTE (430 mg/kg, dose level High): 81.67%
MEAN CORPUSCULAR HEMOGLOBIN (430 mg/kg, dose level High): 21.97 pg
MEAN CORPUSCULAR HEMOGLOBIN CONCENTRATION (430 mg/kg, dose level High): 37.2 G/DL
MEAN CORPUSCULAR VOLUME (430 mg/kg, dose level High): 59.07 fL
MONOCYTE (430 mg/kg, dose level High): 5.33%
NEUTROPHIL (430 mg/kg, dose level High): 12.67%
NUCLEATED RED BLOOD CELLS (430 mg/kg, dose level High): 0 /100WBC
PLATELET COUNT (430 mg/kg, dose level High): 1251 x10E3/uL
ALANINE AMINOTRANSFERASE (430 mg/kg, dose level High): 62 u/L
ALBUMIN (430 mg/kg, dose level High): 4.77 G/DL
ALKALINE PHOSPHATASE (430 mg/kg, dose level High): 394.67 u/L
ASPARTATE AMINOTRANSFERASE (430 mg/kg, dose level High): 108 u/L
BLOOD UREA NITROGEN (430 mg/kg, dose level High): 16.33 mg/dL
CARBON DIOXIDE (430 mg/kg, dose level High): 25 mmol/L
CHLORIDE (430 mg/kg, dose level High): 103 MEQ/L
CHOLESTEROL (430 mg/kg, dose level High): 68 mg/dL
CREATININE (430 mg/kg, dose level High): 0.18 mg/dL
GLUCOSE (430 mg/kg, dose level High): 128.67 mg/dL
LACTATE DEHYDROGENASE (430 mg/kg, dose level High): 323 u/L
LIPASE (430 mg/kg, dose level High): 10 u/L
PHOSPHORUS (430 mg/kg, dose level High): 11.43 mg/dL
POTASSIUM (430 mg/kg, dose level High): 5.73 MEQ/L
SODIUM (430 mg/kg, dose level High): 144.9 MEQ/L
TOTAL BILIRUBIN (430 mg/kg, dose level High): 0.17 mg/dL
TOTAL PROTEIN (430 mg/kg, dose level High): 6.5 G/DL
URIC ACID (430 mg/kg, dose level High): 1.7 mg/dL

Reference: ChEMBL document CHEMBL3885881, “DrugMatrix”
